{
  "source": "patent US11952377B2",
  "about": "“Quinolines and azaquinolines as inhibitors of CD38” (BOEHRINGER INGELHEIM INTERNATIONAL GMBH, priority 2021, dated 2024)",
  "data": [
    {"molecular_target": "Human CD38 (Homo sapiens (Human), UniProt P28907)", "sequence (P28907 whole entry)": "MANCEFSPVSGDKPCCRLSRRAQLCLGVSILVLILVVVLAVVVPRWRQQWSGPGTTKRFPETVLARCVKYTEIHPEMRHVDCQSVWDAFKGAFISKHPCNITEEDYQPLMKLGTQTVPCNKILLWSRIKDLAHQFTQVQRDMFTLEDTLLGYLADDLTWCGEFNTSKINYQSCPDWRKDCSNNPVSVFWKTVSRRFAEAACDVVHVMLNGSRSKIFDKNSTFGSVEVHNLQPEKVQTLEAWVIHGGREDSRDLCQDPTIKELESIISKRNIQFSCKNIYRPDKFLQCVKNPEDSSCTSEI", "test": "CD38 enzyme assay", "type": "biochemical", "details": "2 nM CD38, 30 min preincubation at 25° C., absorbance at 405 nm after 60 minutes", "from_the_text": "[formula] where CMPD is the value for the individual compound treated well, MIN is the average of the values of the 4-(((1r,4r)-4-(2-methoxyethoxy)cyclohexyl)amino)-1-methyl-6-(thiazol-5-yl)quinolin-2(1H)-one positive control wells and MAX is the average of the values of the DMSO negative control wells.\nThe % inhibition values were plotted as a function of compound concentration and the following 4-parameter fit was applied to derive the IC50 values:\n[formula] where top and bottom are normally allowed to float, but may be fixed at 100 or 0 respectively in a 3-parameter fit. The Hill Coefficient is normally allowed to float but may also be fixed at 1 in a 3-parameter fit. Y is the % inhibition and X is the compound concentration.", "units": {"IC50": "nM"}, "values": [
      {"smiles": "COCCO[C@H]1CC[C@H](Nc2cc(=O)n(C)c3ccc(-n4ccnc4)cc23)CC1", "note": "[Example 1, 6-(1H-imidazol-1-yl)-4-(((1r,4r)-4-(2-methoxyethoxy)cyclohexyl)amino)-1-methylquinolin-2(1H)-one]", "IC50": "10 to 100"},
      {"smiles": "Cn1c(=O)cc(N[C@H]2CC[C@H](NC3COC3)CC2)c2cc(-n3ccnc3)ccc21", "note": "[Example 2, 6-(1H-imidazol-1-yl)-1-methyl-4-(((1r,4r)-4-(oxetan-3-ylamino)cyclohexyl)amino)quinolin-2(1H)-one]", "IC50": "10 to 100"},
      {"smiles": "COCCO[C@H]1CC[C@H](Nc2cc(=O)n(C)c3ccc(-n4ccnc4)nc23)CC1", "note": "[Example 3, 6-(1H-imidazol-1-yl)-4-(((1r,4r)-4-(2-methoxyethoxy)cyclohexyl)amino)-1-methyl-1,5-naphthyridin-2(1H)-one]", "IC50": "10 to 100"},
      {"smiles": "Cn1c(=O)cc(N[C@H]2CC[C@H](C(C)(C)O)CC2)c2nc(-n3ccnc3)ccc21", "note": "[Example 4, 4-(((1r,4r)-4-(2-hydroxypropan-2-yl)cyclohexyl)amino)-6-(1H-imidazol-1-yl)-1-methyl-1,5-naphthyridin-2(1H)-one]", "IC50": "10 to 100"},
      {"smiles": "Cn1c(=O)cc(N[C@H]2CC[C@H](C(C)(C)O)CC2)c2cc(-n3ccnc3)ncc21", "note": "[Example 5, 4-(((1r,4r)-4-(2-hydroxypropan-2-yl)cyclohexyl)amino)-6-(1H-imidazol-1-yl)-1-methyl-1,7-naphthyridin-2(1H)-one]", "IC50": "10 to 100"},
      {"smiles": "COCCO[C@H]1CC[C@H](Nc2cc(=O)n(C)c3cnc(-n4ccnc4)cc23)CC1", "note": "[Example 6, 6-(1H-imidazol-1-yl)-4-(((1r,4r)-4-(2-methoxyethoxy)cyclohexyl)amino)-1-methyl-1,7-naphthyridin-2(1H)-one]", "IC50": "10 to 100"},
      {"smiles": "COCCO[C@H]1CC[C@H](Nc2cc(=O)n(C)c3cnc(-n4ccnc4)nc23)CC1", "note": "[Example 7, 2-(1H-imidazol-1-yl)-8-(((1r,4r)-4-(2-methoxyethoxy)cyclohexyl)amino)-5-methylpyrido[3,2-d]pyrimidin-6(5H)-one]", "IC50": "10 to 100"},
      {"smiles": "Cn1c(=O)cc(N[C@H]2CC[C@H](C(C)(C)O)CC2)c2nc(-n3ccnc3)ncc21", "note": "[Example 8, 8-(((1r,4r)-4-(2-hydroxypropan-2-yl)cyclohexyl)amino)-2-(1H-imidazol-1-yl)-5-methylpyrido[3,2-d]pyrimidin-6(5H)-one]", "IC50": "< 10"},
      {"smiles": "Cn1c(=O)cc(Nc2ccc(C(F)(F)F)cc2)c2nc(-n3ccnc3)ncc21", "note": "[Example 9, 2-(1H-imidazol-1-yl)-5-methyl-8-((4-(trifluoromethyl)phenyl)amino)pyrido[3,2-d]pyrimidin-6(5H)-one]", "IC50": "< 10"},
      {"smiles": "Cn1c(=O)cc(Nc2ccc(OCCN3CCOCC3)nc2)c2nc(-n3ccnc3)ncc21", "note": "[Example 10, 2-(1H-imidazol-1-yl)-5-methyl-8-((6-(2-morpholinoethoxy)pyridin-3-yl)amino)pyrido[3,2-d]pyrimidin-6(5H)-one]", "IC50": "10 to 100"},
      {"smiles": "Cn1c(=O)cc(N[C@H]2CC[C@H](NCC(F)(F)F)CC2)c2cc(-n3ccnc3)ccc21", "note": "[Example 11, 6-(1H-imidazol-1-yl)-1-methyl-4-(((1r,4r)-4-((2,2,2-trifluoroethyl)amino)cyclohexyl)amino)quinolin-2(1H)-one]", "IC50": "10 to 100"},
      {"smiles": "Cn1c(=O)cc(N[C@H]2CC[C@H](C(C)(C)O)CC2)c2cc(-n3ccnc3)ccc21", "note": "[Example 12, 4-(((1r,4r)-4-(2-hydroxypropan-2-yl)cyclohexyl)amino)-6-(1H-imidazol-1-yl)-1-methylquinolin-2(1H)-one]", "IC50": "10 to 100"},
      {"smiles": "Cn1c(=O)cc(NC2CCN(S(C)(=O)=O)CC2)c2cc(-n3ccnc3)ccc21", "note": "[Example 13]", "IC50": "10 to 100"},
      {"smiles": "CN(C)C(=O)CO[C@H]1CC[C@H](Nc2cc(=O)n(C)c3ccc(-n4ccnc4)cc23)CC1", "note": "[Example 14, 2-(((1r,4r)-4-((6-(1H-imidazol-1-yl)-1-methyl-2-oxo-1,2-dihydroquinolin-4-yl)amino)cyclohexyl)oxy)-N,N-dimethylacetamide]", "IC50": "10 to 100"},
      {"smiles": "Cn1c(=O)cc(Nc2ccc(OCC(F)(F)F)nc2)c2cc(-n3ccnc3)ccc21", "note": "[Example 15, 6-(1H-imidazol-1-yl)-1-methyl-4-((6-(2,2,2-trifluoroethoxy)pyridin-3-yl)amino)quinolin-2(1H)-one]", "IC50": "10 to 100"},
      {"smiles": "CN(C)CCOc1ccc(Nc2cc(=O)n(C)c3ccc(-n4ccnc4)cc23)cn1", "note": "[Example 17, 4-((6-(2-(dimethylamino)ethoxy)pyridin-3-yl)amino)-6-(1H-imidazol-1-yl)-1-methylquinolin-2(1H)-one]", "IC50": "10 to 100"},
      {"smiles": "Cn1c(=O)cc(N[C@H]2CC[C@H](OCCN3CCCC3)CC2)c2cc(-n3ccnc3)ccc21", "note": "[Example 18, 6-(1H-imidazol-1-yl)-1-methyl-4-(((1r,4r)-4-(2-(pyrrolidin-1-yl)ethoxy)cyclohexyl)amino)quinolin-2(1H)-one]", "IC50": "10 to 100"},
      {"smiles": "Cn1c(=O)cc(N[C@H]2CC[C@H](NCC(C)(F)F)CC2)c2nc(-n3ccnc3)ncc21", "note": "[Example 19, 8-(((1r,4r)-4-((2,2-difluoropropyl)amino)cyclohexyl)amino)-2-(1H-imidazol-1-yl)-5-methylpyrido[3,2-d]pyrimidin-6(5H)-one]", "IC50": "< 10"},
      {"smiles": "CN(C)C(=O)CO[C@H]1CC[C@H](Nc2cc(=O)n(C)c3cnc(-n4ccnc4)nc23)CC1", "note": "[Example 21, 2-(((1r,4r)-4-((2-(1H-imidazol-1-yl)-5-methyl-6-oxo-5,6-dihydropyrido[3,2-d]pyrimidin-8-yl)amino)cyclohexyl)oxy)-N,N-dimethylacetamide]", "IC50": "10 to 100"},
      {"smiles": "Cn1c(=O)cc(Nc2ccc(C#N)cc2)c2nc(-n3ccnc3)ncc21", "note": "[Example 22, 4-((2-(1H-imidazol-1-yl)-5-methyl-6-oxo-5,6-dihydropyrido[3,2-d]pyrimidin-8-yl)amino)benzonitrile]", "IC50": "< 10"},
      {"smiles": "Cn1c(=O)cc(N[C@H]2CC[C@H](NCC(F)(F)F)CC2)c2nc(-n3ccnc3)ncc21", "note": "[Example 23, 2-(1H-imidazol-1-yl)-5-methyl-8-(((1r,4r)-4-((2,2,2-trifluoroethyl)amino)cyclohexyl)amino)pyrido[3,2-d]pyrimidin-6(5H)-one]", "IC50": "< 10"},
      {"smiles": "CO[C@H]1CC[C@H](Nc2cc(=O)n(C)c3cnc(-n4ccnc4)nc23)CC1", "note": "[Example 24, 2-(1H-imidazol-1-yl)-8-(((1r,4r)-4-methoxycyclohexyl)amino)-5-methylpyrido[3,2-d]pyrimidin-6(5H)-one]", "IC50": "< 10"},
      {"smiles": "Cn1c(=O)cc(Nc2ccc(OCCN3CCCC3)nc2)c2nc(-n3ccnc3)ncc21", "note": "[Example 25]", "IC50": "10 to 100"},
      {"smiles": "Cn1c(=O)cc(NC2CCC(F)(F)CC2)c2nc(-n3ccnc3)ncc21", "note": "[Example 26, 8-((4,4-difluorocyclohexyl)amino)-2-(1H-imidazol-1-yl)-5-methylpyrido[3,2-d]pyrimidin-6(5H)-one]", "IC50": "< 10"},
      {"smiles": "Cn1c(=O)cc(N[C@H]2CC[C@H](C3(O)CC3)CC2)c2nc(-n3ccnc3)ncc21", "note": "[Example 27, 8-(((1r,4r)-4-(1-hydroxycyclopropyl)cyclohexyl)amino)-2-(1H-imidazol-1-yl)-5-methylpyrido[3,2-d]pyrimidin-6(5H)-one]", "IC50": "< 10"}
    ]}
  ]
}
